Assay results reported in ChEMBL document CHEMBL3779775, “Synthesis, anti-inflammatory, analgesic, COX-1/2 inhibition activities and molecular docking study of pyrazoline derivatives” (Bioorg Med Chem, 2016).
Active and inactive are the calls of the source. The rule behind the calls is not given here.

How the values were obtained:
[1] = molecular target: T1, Prostaglandin G/H synthase 1 (Ovis aries, UniProt P05979); assay: Inhibition of ovine COX-1 using arachidonic acid as substrate assessed as production of […] preincubated for 5 mins followed by addition of substrate measured after 2 mins by EIA
T1 sequence (P05979 whole entry): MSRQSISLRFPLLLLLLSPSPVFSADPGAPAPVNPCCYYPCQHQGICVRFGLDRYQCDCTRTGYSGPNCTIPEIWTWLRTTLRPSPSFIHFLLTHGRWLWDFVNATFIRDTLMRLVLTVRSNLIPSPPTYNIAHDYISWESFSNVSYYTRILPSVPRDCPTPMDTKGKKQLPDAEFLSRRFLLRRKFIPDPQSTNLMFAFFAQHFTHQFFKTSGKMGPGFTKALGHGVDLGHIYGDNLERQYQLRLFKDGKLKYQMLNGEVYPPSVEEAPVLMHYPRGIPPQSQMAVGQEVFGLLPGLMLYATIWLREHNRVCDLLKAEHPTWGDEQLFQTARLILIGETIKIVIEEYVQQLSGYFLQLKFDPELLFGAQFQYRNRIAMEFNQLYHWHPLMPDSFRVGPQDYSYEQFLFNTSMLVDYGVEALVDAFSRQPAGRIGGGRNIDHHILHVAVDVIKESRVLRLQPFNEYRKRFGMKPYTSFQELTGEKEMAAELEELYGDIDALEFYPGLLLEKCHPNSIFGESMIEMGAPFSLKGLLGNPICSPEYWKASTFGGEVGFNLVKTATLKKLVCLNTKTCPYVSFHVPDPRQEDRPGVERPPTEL

Mus musculus [2] = assay: Analgesic activity in ip dosed albino Swiss mouse assessed as decrease in licking or blowing time administered as single dose measured after 1 hr by hot plate test; assay type: functional
Rattus norvegicus [3] = assay: Ulcerogenicity in ip dosed fasted Sprague-Dawley rat after 24 hrs by hand lens; assay type: toxicity, organism-based; details: in vivo
Rattus norvegicus [4] = assay: Antiinflammatory activity in ip dosed carrageenan induced Sprague-Dawley rat paw oedema model assessed as reduction of paw volume measured after 2 hrs by plethysmometer method; assay type: functional
Rattus norvegicus [5] = assay: Antiinflammatory activity in carrageenan induced Sprague-Dawley rat paw oedema model assessed as reduction of paw volume at 200 mg/kg, ip measured after 2 hrs by plethysmometer method; assay type: functional, organism-based
Mus musculus [6] = assay: Analgesic activity in albino Swiss mouse assessed as decrease in licking or blowing time at 200 mg/kg, ip administered as single dose measured after 1 hr by hot plate test; assay type: functional, organism-based

CC(=O)c1ccc(NCC(=O)N2N=C(c3ccc(F)cc3)CC2c2ccc([N+](=O)[O-])cc2)cc1 (stereo not drawn)
IC50 [1]: > 100 µM | ED50 (Mus musculus [2]): 49.4 mg/kg | Activity (Rattus norvegicus [3]): > 200 mg/kg | ED50 (Rattus norvegicus [4]): 73.2 mg/kg

O=C(CO[N+](=O)[O-])N1N=C(c2ccc(Br)cc2)CC1c1ccc(Cl)cc1 (stereo not drawn)
Activity (Rattus norvegicus [5]): inactive | Activity (Mus musculus [6]): inactive

Fc1ccc(C2=NNC(c3ccc(Cl)cc3)C2)cc1 (stereo not drawn)
Activity (Rattus norvegicus [5]): inactive | Activity (Mus musculus [6]): inactive

O=C(CO[N+](=O)[O-])N1N=C(c2ccccc2)CC1c1ccc([N+](=O)[O-])cc1 (stereo not drawn)
Activity (Rattus norvegicus [5]): inactive | Activity (Mus musculus [6]): inactive

O=C(CCl)N1N=C(c2ccc(Br)cc2)CC1c1ccc([N+](=O)[O-])cc1 (stereo not drawn)
Activity (Rattus norvegicus [5]): inactive | Activity (Mus musculus [6]): inactive

O=C(CCl)N1N=C(c2ccccc2)CC1c1ccc([N+](=O)[O-])cc1 (stereo not drawn)
Activity (Rattus norvegicus [5]): inactive | Activity (Mus musculus [6]): inactive

O=C(CO[N+](=O)[O-])N1N=C(c2ccc(F)cc2)CC1c1ccc([N+](=O)[O-])cc1 (stereo not drawn)
IC50 [1]: > 100 µM | ED50 (Mus musculus [2]): 55.1 mg/kg | Activity (Rattus norvegicus [3]): > 200 mg/kg | ED50 (Rattus norvegicus [4]): 65.3 mg/kg

O=C(CCl)N1N=C(c2ccc(F)cc2)CC1c1ccc([N+](=O)[O-])cc1 (stereo not drawn)
ED50 (Mus musculus [2]): 68.2 mg/kg | Activity (Rattus norvegicus [3]): > 200 mg/kg | ED50 (Rattus norvegicus [4]): 98.4 mg/kg

O=C(CO[N+](=O)[O-])N1N=C(c2ccc(Br)cc2)CC1c1ccc([N+](=O)[O-])cc1 (stereo not drawn)
Activity (Rattus norvegicus [5]): inactive | Activity (Mus musculus [6]): inactive

O=C(CCl)Nc1ccc(C2=NN(C(=O)CCl)C(c3ccc([N+](=O)[O-])cc3)C2)cc1 (stereo not drawn)
ED50 (Mus musculus [2]): 81.9 mg/kg | Activity (Rattus norvegicus [3]): > 200 mg/kg | ED50 (Rattus norvegicus [4]): 90.3 mg/kg

Nc1ccc(C2=NNC(c3ccc([N+](=O)[O-])cc3)C2)cc1 (stereo not drawn)
Activity (Rattus norvegicus [5]): inactive | Activity (Mus musculus [6]): inactive

CC(=O)Nc1ccc(C2=NN(C(C)=O)C(c3ccc([N+](=O)[O-])cc3)C2)cc1 (stereo not drawn)
IC50 [1]: > 100 µM | ED50 (Mus musculus [2]): 48.1 mg/kg | Activity (Rattus norvegicus [3]): > 200 mg/kg

CC(=O)c1ccc(NCC(=O)N2N=C(c3ccccc3)CC2c2ccc([N+](=O)[O-])cc2)cc1 (stereo not drawn)
IC50 [1]: > 100 µM | ED50 (Mus musculus [2]): 38.6 mg/kg | Activity (Rattus norvegicus [3]): > 200 mg/kg | ED50 (Rattus norvegicus [4]): 59.4 mg/kg

Cc1ccc(-c2cc(C(F)(F)F)nn2-c2ccc(S(N)(=O)=O)cc2)cc1 [CELECOXIB]
ED50 (Mus musculus [2]): 72 mg/kg | Activity (Rattus norvegicus [3]): > 200 mg/kg | ED50 (Rattus norvegicus [4]): 89 mg/kg

CC(=O)Nc1ccc(C2=NN(c3ccccc3)C(c3ccc(Cl)cc3)C2)cc1 (stereo not drawn)
IC50 [1]: > 100 µM | ED50 (Mus musculus [2]): 49.6 mg/kg | Activity (Rattus norvegicus [3]): > 200 mg/kg | ED50 (Rattus norvegicus [4]): 74.2 mg/kg

CC(=O)Nc1ccc(C2=NN(c3ccccc3)C(c3ccc([N+](=O)[O-])cc3)C2)cc1 (stereo not drawn)
ED50 (Mus musculus [2]): 75.2 mg/kg | Activity (Rattus norvegicus [3]): > 200 mg/kg | ED50 (Rattus norvegicus [4]): 91.3 mg/kg

CC(=O)c1ccc(NCC(=O)N2N=C(c3ccc(Br)cc3)CC2c2ccc([N+](=O)[O-])cc2)cc1 (stereo not drawn)
ED50 (Mus musculus [2]): 87.8 mg/kg | Activity (Rattus norvegicus [3]): > 200 mg/kg | ED50 (Rattus norvegicus [4]): 95.9 mg/kg

Nc1ccc(C2=NN(C(=O)CCl)C(c3ccc([N+](=O)[O-])cc3)C2)cc1 (stereo not drawn)
Activity (Rattus norvegicus [5]): inactive | Activity (Mus musculus [6]): inactive

O=[N+]([O-])c1ccc(C2CC(c3ccc(F)cc3)=NN2)cc1 (stereo not drawn)
ED50 (Mus musculus [2]): 59.1 mg/kg | Activity (Rattus norvegicus [3]): > 200 mg/kg | ED50 (Rattus norvegicus [4]): 89.7 mg/kg
